# Reference: US5334593A, “Anxiolytic drugs” (Yamasa Shoyu Kabushiki Kaisha, priority 1990, dated 1994)
# Columns and labels:
# ICR mice = experiment: Acute toxicity (intraperitoneal administration); format: in vivo, mouse (ICR); conditions: one week
# Procedure: 1-Amino-5-bromouracil (ABU) was suspended in physiological saline containing 0.5% carboxymethyl cellulose (CMC). ABU was administered intraperitoneally to 8 ICR mice in a dose of 500 mg/kg, and their lethality was observed over a period of one week.
# Further, 1-amino-5-chlorouracil (ACU) was administered intraperitoneally to 10 male ICR mice in a dose of 357 mg/kg, and their lethality was observed over a period of one week.
# in vivo = conditions: mouse, in vivo, po
# Procedure: (§1) The muscle relaxant activities of the test compounds, 1-amino-5-bromouracil(ABU), 1-amino--5-chlorouracil (ACU) and diazepam (DZP), were determined in accordance with the method of L. L. Coughenour et al. [see Pharmacol. Biochem. & Behav., 6, 351-353 (1977)].
# (§2) Male ICR mice were placed on a 13 cm×13 cm No. 4 wire screen, and the screen was then rotated by 180 degrees. Those mice which were able to return to the screen within one minute were referred to "successful" mice. The suspension of each test compound prepared in the same manner as in Test Example 1 was administered orally to the mice. The mice were then subjected to the above test. The dose of the test compound at which 50% of the mice successfully returned to the screen was determined as ED50 (A).
# (§3) Furthermore, the validity of each of the test compounds as an anxiolytic drug was expressed as A/B value.
# male ICR mice [1] = experiment: Muscle relaxant activity (rotated wire screen test); conditions: muscle relaxant ED50 / minimum effective dose for anti-conflict activity
# Procedure: as §1, §2, §3
# [2] = Acute toxicity (oral administration); conditions: mouse, in vivo, male ICR mice, Litchfield-Wilcoxon method
# Procedure: The acute toxicity (LD50 value) per oral administration was determined by the following method.
# The test compound (1-amino-5-bromouracil (ABU) or 1-amino-5-chlorouracil (ACU) was suspended in distilled water containing 0.5% carboxymethyl cellulose (CMC). ABU or ACU was administered orally to male ICR mice (1 group: 10 mice) in a dose of 1000-2800 mg/kg or 500-1400 mg/kg, and the LD50 values were determined according to the Litchfield-Wilcoxon method. The results are shown in Table 2.
# male Wistar rats = experiment: Anti-conflict activity (Geller type conflict test); format: in vivo, rat (Wistar); conditions: for number of lever pressing during the alarm periods / number of lever pressing during the safety periods: one hour, vs control; for minimal effective dose: Rattus norvegicus, oral, from results of Test Example 1, read-out: Minimum Effective Dose for Anti-Conflict Activity [B]
# Procedure: The activities of the test compounds were evaluated by the Geller type conflict test which is frequently employed as a preclinical evaluation method of an anxiolytic drug [see Psychophamacologia, 1, 482-492 (1960 )]. The method is described below.
# 1-Amino--5--chlorouracil (ACU) , 1-amino-5-bromouracil (ABU) and 1-amino-5-fluorouracil (AFU) were used as the test compounds. These compounds were respectively suspended in distilled water containing 0 . 5% carboxymethyl cellulose (CMC) to obtain suspensions suitable for oral administration. In addition, diazepam (DZP) serving as a positive control compound was also prepared as a suspension suitable for oral administration in the same manner.
# A skinner box (manufactured by OHARA & Co. , Ltd. ) used for the test was equipped with a lever, a light and a buzzer, and its floor was a grid made of stainless steel. When the lever was pressed, pellets (food) were supplied from a feeder, and, if necessary, an electric shock was given from the floor.
# Male Wistar rats were deprived of food during the night to restrain an increase in the body weight, and a training of the animals was started. After the number of lever pressing performed by the rats reached the predetermined level by following a reinforcement schedule in which food pellets were supplied once every ten times of lever pressing (FR-10) , two periods, that is, a 7-minute safety period and a 3-minute alarm period were alternately incorporated in the schedule - During the alarm period, the rats were signaled by the light and buzzer, and further by an electric shock given from the floor every time they were supplied with food pellets. Those rats which were trained to press the lever 19 times or less during the alarm period were used for the measurement. Immediately after a suspension of a test compound prepared in the above-described manner was administered orally to the rats, they were placed in the skinner box, and the numbers of lever pressing were counted over a period of one hour. The numbers thus obtained were compared with those obtained by the control wherein distilled water containing 0.5% CMC and no test compound was orally administered to the rats and the number of lever pressing was counted for one hour. The significant difference was ascertained by the Wilcoxoh's signed rank test. The results are shown in FIG. 1A, FIG. 1B, FIG. 1C, FIG. 2A and FIG. 2B.
# To the rats used for the above test, no drugs were administered for one week, and then they were repeatedly used for the same test.
# Further, the minimum effective dose (B) for anti-conflict activity of each of the above-described test compounds was determined on the basis of the results obtained in Test Example 1.
# male ICR mice [3] = experiment: Anti-conflict activity (Vogel type conflict test); format: in vivo, mouse (ICR); conditions: for number of water-drinking: 10 minutes
# Procedure: The method is described below.
# Male ICR mice (6 weeks old) were deprived of water for one day before the test. The mice were then individually placed in the test box, and given water ad libitum for 10 minutes. Thereafter, they were placed back in their home cages, given water ad libitum overnight, and again deprived of water for two days. The mice thus treated were used for the measurement.
# ABU, the test compound, was suspended in physiological saline containing 0.5% CMC, and the suspension was administered intraperitoneally to the above mice. .On the other hand, as a positive control compound, DZP was administered in the same manner. Fifteen minutes after the administration,the mice were placed in the test box, and allowed to freely drink one count of water (one drop: approximately 40 ul ). Thereafter, a 50 V electric foot shock was given from the grid floor to the mice every time they drunk one count of water. Under such conditions, the number of water-drinking was counted over a period of 10 minutes. The number of water-drinking performed by a group of mice to which the test compound was administered was compared with that of water-drinking performed by a group of mice to which a vehicle (physiological saline containing 0.5% CMC and no test compound) was administered.
# The significant difference was ascertained by the Mann-Whitney's U-test.
# [4] = cited from earlier work
SMILES,ED50 (in vivo) [mg/kg],Validity [A/B] (male ICR mice [1]),LD50 [2] [mg/kg],number of lever pressing during the alarm periods (male Wistar rats; 10 mg/kg oral),number of lever pressing during the alarm periods (male Wistar rats; 30 mg/kg oral),number of lever pressing during the safety periods (male Wistar rats; 30 mg/kg oral),number of lever pressing during the safety periods (male Wistar rats; 50 mg/kg oral),minimal effective dose (male Wistar rats) [mg/kg],number of lever pressing during the alarm periods (male Wistar rats; 20 mg/kg oral),number of lever pressing during the safety periods (male Wistar rats; 20 mg/kg oral),further results
"Nn1cc(Br)c(=O)[nH]c1=O [ABU, 1-amino-5-bromouracil]",74.1,7.4,1920,significantly increased,significantly increased,did not significantly change,did not significantly change,10,,,"lethality (ICR mice; 500 mg/kg i.p., 8 ICR mice): no death was observed; number of lever pressing during the safety periods (male Wistar rats; 10 mg/kg oral): did not significantly change; number of lever pressing during the alarm periods (male Wistar rats; 50 mg/kg oral): significantly increased; sensitivity to an electric shock (male ICR mice [3]; 20 mg/kg i.p.): no decrease in the sensitivity to an electric shock was noted; number of water-drinking (male ICR mice [3]; ABU 5, 10, 20 and 50 mg/kg i.p., significant only at 20 mg/kg): a significant increase in the number of water-drinking was noted only at the dose of 20 mg/kg"
"Nn1cc(Cl)c(=O)[nH]c1=O [ACU, 1-Amino--5--chlorouracil]",46,2.3,971,,significantly increased,did not significantly change,,20,significantly increased,did not significantly change,"lethality (ICR mice; 357 mg/kg i.p., 10 male ICR mice): no death was observed"
"Nn1cc(F)c(=O)[nH]c1=O [AFU, 1-amino-5-fluorouracil]",,,,,,,,,significantly increased,did not significantly change,
"CN1C(=O)CN=C(c2ccccc2)c2cc(Cl)ccc21 [DZP, diazepam, reference compound]",8.8,1.8,,significantly increased,,,significantly decreased,5,significantly increased,significantly decreased,number of lever pressing during the alarm periods (male Wistar rats; 5 mg/kg oral): significantly increased; behaviors of the mice when receiving an electric shock (male ICR mice [3]; 2 mg/kg i.p.): lack of both vocalization and escape behavior; sensitivity of the mice to an electric shock (male ICR mice [3]; 2 mg/kg i.p.): decreased; number of water-drinking (male ICR mice [3]; 2 mg/kg i.p.): significantly increased
CCC(C)n1c(=O)[nH]c(C)c(Br)c1=O (stereo not shown) [bromacil],,,,,,,,,,,"minimum effective dose for single administration ([4]; oral, single administration): 100 mg/kg; anxiolytic activity ([4]; orally administered): low anxiolytic activity"
